System: Eschericia coli strain ATCC25922
Assay: standard microdilution assay to determine minimum inhibitory concentrations (MICs)
Format: cell-based
Details: Escherichia coli, ATCC25922, Eschericia coli strain ATCC25922, standard microdilution assay; read-out: E. coli ATCC25922 MIC
Protocol: Minimum inhibitory concentrations (MICs) are determined by the microdilution method, typically in a final volume of 100 microliters, according to protocols outlined by The Clinical and Laboratory Standards Institute [CLSI; formerly the National Committee for Clinical Laboratory Standards (NCCLS)]. See CLSI: Methods for dilution antimicrobial susceptibility tests for bacteria that grow aerobically; approved standard-fifth edition. Wayne, Pa.: NCCLS; 2000. The assays can be also be performed in microtiter trays according to conventional methodologies as published by the CLSI. See CLSI. Methods for Dilution Antimicrobial Susceptibility Tests for Bacteria That Grow Aerobically; Approved Standard-Seventh Edition. CLSI Document M7-A7 [ISBN 1-56238-587-9] CLSI, 940 West Valley Road, Suite 1400, Wayne Pa. 19087-1898 USA, 2006).
The compounds of the present invention were tested for antimicrobial activity. The compounds were run against Eschericia coli strain ATCC25922 using a standard microdilution assay to determine minimum inhibitory concentrations (MICs). […] A “N/A” means that data is unavailable. It will be recognized by one skilled in the art that the compounds can be assessed against other bacterial organisms and that the presentation of data for activity against Eschericia coli is illustrative and in no way is intended to limit the scope of the present invention. The compounds of the present invention can be assayed against a range of other microorganisms depending upon the performance activity desired to be gathered. Furthermore, the “+”, “−”, and “N/A” representation and the selection of a cutoff value of 16 micrograms/ml is also illustrative and in no way is intended to limit the scope of the present invention.

SMILES | MIC
NCCCNCc1ccc(-c2c[nH]c(NC(=O)Nc3cccc4nsnc34)nc2=O)cc1F [Compound 445] | > 16 µg/mL
N=C(N)NCCN(CCCN)Cc1ccc(-c2c[nH]c(NC(N)=O)nc2=O)cc1 [Compound 170] | > 16 µg/mL
NCCCNCc1ccc(-c2c[nH]c(NC(=O)Nc3ccc(C(F)(F)F)cc3)nc2=O)cc1C(F)(F)F [Compound 273] | > 16 µg/mL
NCCCNCc1ccc(-c2c[nH]c(NC(=O)NCc3ccc(Cl)c(Cl)c3)nc2=O)cc1F [Compound 464] | > 16 µg/mL
NCCCCN1CCN(c2c[nH]c(NC(=O)Nc3cccc(Cl)c3F)nc2=O)CC1 [Compound 521] | > 16 µg/mL
NC(N)NCCCN1CCC(c2c[nH]c(NC(=O)Nc3ccccc3OC(F)(F)F)nc2=O)CC1 [Compound 456] | > 16 µg/mL
CN(C)CCCOc1ccccc1NC(=O)Nc1nc(=O)c(-c2ccc(CNCCCN)cc2)c[nH]1 [Compound 1291] | > 16 µg/mL
N=C(N)NCCCC(CCCn1ccc(NC(=O)c2ccc(N3CCOCC3)nc2)nc1=O)NCCCN (centres unmarked) [Compound 187] | > 16 µg/mL
CSCCCNCc1ccc(-c2c[nH]c(NC(=O)Nc3ccccc3OC(F)(F)F)nc2=O)cc1 [Compound 282] | > 16 µg/mL
N=C(N)NCCCN1CCN(C(=O)Cc2c[nH]c(NC(=O)Nc3ccccc3OC(F)(F)F)nc2=O)CC1 [Compound 429] | > 16 µg/mL
N=C(N)NCc1cn(-c2ccc(-n3ccc(NC(N)=O)nc3=O)cc2)nn1 [Compound 141] | > 16 µg/mL
NCCCN(CCCN)Cc1ccc(-c2c[nH]c(Nc3ccc(C(F)(F)F)cc3)nc2=O)cc1F [Compound 489] | > 16 µg/mL
NCc1ccc(-c2c[nH]c(NC(=O)NC3CCCN(CCO)C3)nc2=O)cc1 (centres unmarked) [Compound 1317] | > 16 µg/mL
O=C(Nc1nc(=O)c(-c2ccc(CNCc3nccs3)cc2)c[nH]1)Nc1ccccc1OC(F)(F)F [Compound 291] | > 16 µg/mL
N=C(N)NCCCCCN1CCN(c2c[nH]c(NC(=O)Nc3cccc(Cl)c3F)nc2=O)CC1 [Compound 502] | > 16 µg/mL
O=C(Nc1nc(=O)c(-c2ccc(CNCCCCO)cc2)c[nH]1)Nc1ccccc1OC(F)(F)F [Compound 342] | > 16 µg/mL
NCCCN1CCN(C(=O)Cc2c[nH]c(NC(=O)Nc3ccccc3OC(F)(F)F)nc2=O)CC1 [Compound 405] | > 16 µg/mL
N=C(N)NCCCNC1CCN(c2c[nH]c(NC(=O)Nc3ccccc3OC(F)(F)F)nc2=O)C1 (centres unmarked) [Compound 431] | > 16 µg/mL
NCCCN(CCC(=O)O)Cc1ccc(-c2c[nH]c(NC(=O)Nc3cc(F)c(F)cc3F)nc2=O)cc1 [Compound 320] | > 16 µg/mL
NCCCNCc1ccc(-c2c[nH]c(NC(=O)NCCc3ccc(F)cc3)nc2=O)cc1F [Compound 435] | > 16 µg/mL
NCCCNCc1ccc(-c2c[nH]c(NC(=O)Nc3c(F)c(F)c(F)c(F)c3F)nc2=O)cc1F [Compound 449] | > 16 µg/mL
O=C(Nc1nc(=O)c(-c2ccc(CNCC(O)CO)cc2)c[nH]1)Nc1ccccc1OC(F)(F)F (centres unmarked) [Compound 283] | > 16 µg/mL
N=C(N)NCCCC(CCCn1ccc(NC(=O)c2ccc(N3CCOCC3)cc2)nc1=O)NCCCN (centres unmarked) [Compound 189] | > 16 µg/mL
NCCCN(CCCC(=O)O)Cc1ccc(-c2c[nH]c(NC(=O)Nc3ccccc3OC(F)(F)F)nc2=O)cc1 [Compound 359] | > 16 µg/mL
NCCCN[C@@H]1CCN(CCc2c[nH]c(NC(=O)Nc3ccccc3OC(F)(F)F)nc2=O)C1 [Compound 384] | > 16 µg/mL
N#CCCCN(CCCN)Cc1ccc(-c2c[nH]c(NC(=O)Nc3cc(F)c(F)cc3F)nc2=O)cc1 [Compound 443] | > 16 µg/mL
N=C(N)NCCC[C@@H](CCCn1ccc(NC(=O)Nc2ccc(C(F)(F)F)cc2)nc1=O)NCCCN [Compound 165] | > 16 µg/mL
NCCCNCc1ccc(-c2c[nH]c(NC(=O)NCCc3cccc(Cl)c3)nc2=O)cc1F [Compound 421] | > 16 µg/mL

Other lines, results leading:

MIC | SMILES
> 16 µg/mL | O=C(Nc1nc(=O)c(-c2ccc(CNCCCF)c(Cl)c2)c[nH]1)Nc1ccccc1OC(F)(F)F [Compound 271]
> 16 µg/mL | NCCCCOc1nccc(N)n1 [Compound 128]
< 16 µg/mL | CN(C(=O)C[C@H](CCCNC(=N)N)NCCCN)C1CNC(NC(N)=O)=NC1=O (some centres unmarked) [Compound 106]
> 16 µg/mL | O=C(Nc1nc(=O)c(-c2ccc(CNCc3ccncc3)cc2)c[nH]1)Nc1ccccc1OC(F)(F)F [Compound 319]
> 16 µg/mL | NCCCCN1CCCC(c2c[nH]c(NC(=O)Nc3ccccc3OC(F)(F)F)nc2=O)CC1 (centres unmarked) [Compound 524]
> 16 µg/mL | O=C(Nc1nc(=O)c(-c2ccc(CNCc3ccncc3)cc2)c[nH]1)Nc1cc(F)c(F)cc1F [Compound 329]
> 16 µg/mL | NCCC[C@H](N)CCCN1CCC(NC(N)=O)NC1=O (some centres unmarked) [Compound 135]
< 16 µg/mL | NCCCNCc1ccc(-c2c[nH]c(NC(=O)Nc3ccccc3OC(F)(F)F)nc2=O)cc1C(F)(F)F [Compound 269]
> 16 µg/mL | N#Cc1cccc(NC(=O)Nc2nc(=O)c(-c3ccc(CNCCCN)c(F)c3)c[nH]2)c1 [Compound 486]
> 16 µg/mL | N=C(N)NCc1ccc(-n2ccc(NC(N)=O)nc2=O)cc1 [Compound 126]
> 16 µg/mL | NCCCCn1ccc(N)nc1=O [Compound 129]
> 16 µg/mL | NCCCNCc1ccc(-c2c[nH]c(NC(=O)NCCCc3cc(F)c(F)cc3F)nc2=O)cc1F [Compound 574]
< 16 µg/mL | N=C(N)NCCCNCc1ccc(-c2c[nH]c(NC(=O)NC3CN(C(=O)Nc4cc(F)c(F)cc4F)C3)nc2=O)cc1 [Compound 747]
> 16 µg/mL | N=C(N)NCCCC[C@@H](N)CCn1ccc(NC(N)=O)nc1=O [Compound 124]
> 16 µg/mL | CN(C)c1ccc(NC(=O)Nc2nc(=O)c(-c3ccc(CN(CCCN)CCCN)cc3)c[nH]2)cc1 [Compound 188]
> 16 µg/mL | NCCCCN1CCC(c2c[nH]c(NC(=O)Nc3ccccc3OC(F)(F)F)nc2=O)CC1 [Compound 537]
> 16 µg/mL | N=C(N)NCCCN(CCCN)Cc1ccc(-c2c[nH]c(NC(=O)NCCc3c(Cl)cccc3Cl)nc2=O)cc1 [Compound 477]
> 16 µg/mL | N=C(N)NCCCCN1CCC(c2c[nH]c(NC(=O)Nc3cccc(Cl)c3F)nc2=O)CC1 [Compound 547]
> 16 µg/mL | N=C(N)NCCCNCc1ccc(-c2c[nH]c(NC(=O)NC3CN(S(=O)(=O)c4cc(F)cc(F)c4F)C3)nc2=O)cc1 [Compound 779]
> 16 µg/mL | O=C(Nc1nc(=O)c(-c2ccc(CNCC(O)CO)cc2)c[nH]1)Nc1cc(F)c(F)cc1F (centres unmarked) [Compound 284]
< 16 µg/mL | NCCCNCc1ccc(-c2c[nH]c(NC(=O)Nc3cccc(Cl)c3Cl)nc2=O)cc1C(F)(F)F [Compound 259]
> 16 µg/mL | N=C(N)NCCCNCc1ccc(-c2c[nH]c(NC(=O)NCCCc3cc(F)c(F)cc3F)nc2=O)cc1F [Compound 582]
< 16 µg/mL | NCCCNCc1ccc(-c2c[nH]c(Nc3nc4ccccc4o3)nc2=O)cc1F [Compound 588]
> 16 µg/mL | NCC[C@H](N)C(=O)N1CCN(C2C=NC(NC(N)=O)=NC2=O)CC1 (some centres unmarked) [Compound 161]
< 16 µg/mL | NCCCN(CCCN)Cc1ccc(-c2c[nH]c(NC(=O)Nc3ccccc3OC(F)(F)F)nc2=O)cc1 [Compound 256]
< 16 µg/mL | CN1CCN(C2CCN(c3ccc(NC(=O)Nc4nc(=O)c(-c5ccc(CN(CCCN)CCCN)cc5)c[nH]4)cc3)CC2)CC1 [Compound 209]
< 16 µg/mL | NCCCN(Cc1ccc(-c2c[nH]c(NC(=O)Nc3ccccc3OC(F)(F)F)nc2=O)cc1)CC1CC1 [Compound 312]
< 16 µg/mL | CN(C)c1ccc(C(=O)Nc2ccn(CCCC(CCCNC(=N)N)NCCCN)c(=O)n2)cc1 (centres unmarked) [Compound 176]

— US9845297B2, “Antimicrobial compounds and methods of making and using the same” (Melinta Therapeutics, Inc., priority 2009, dated 2017)
